{"source": "patent US20050013821A1", "about": "“Mint extract and related pharmaceutical compositions” (priority 2001, published 2005)", "key": {"[1]": {"assay": "Solubility of menthol in composition ingredients", "assay_type": "physicochemical", "settings": "in liquid paraffin, white soft paraffin and essential oils"}, "[2]": {"test_system": "burning pain sensations in the vicinity of the vulva or anus", "assay": "Other trials of mint extract compositions (gel, cream, wipes, spray) applied topically against burning pains", "assay_type": "in vivo, human", "method": "The composition may comprise the extract or equivalent up to 10% w/w but it is preferably present in a concentration of not more than substantially 5% w/w of the composition.\nAdditional to these trials, compositions were prepared using menthol (and others using peppermint oil) embodied in a light cream (which included water) with which small pieces of soft cloth were impregnated to form wipes. […] Alternative combinations of ingredients could be utilised, e.g. as known to those skilled in the art, possibly including a pharmaceutically acceptable excipient for the active ingredient/s. Preferably, the composition should contain one or more of vitamins E, A and D combined with a moisturizing element in white soft paraffin form (obtained as “Vaseline”, Registered Trade Mark in the UK) or aloe form for delicate skins. The composition should preferably be formulated so that it is effectively greaseless and non-staining. It should not contain hexachlorophene."}}, "data": [{"smiles": "CC1CCC(C(C)C)C(O)C1", "note": "(centres unmarked) [menthol]", "values": [{"measurement": "solubility", "setting": "[1]", "result": "at least 10 % w/w"}, {"measurement": "outcome of trials as wipes", "setting": "[2]; light cream (including water) impregnated on pieces of soft cloth", "result": "just as successful"}, {"measurement": "relief compared with peppermint oil", "setting": "[2]; menthol used instead of peppermint oil", "result": "Much improved relief"}, {"measurement": "outcome of trials as spray", "setting": "[2]; spray including glycols, glycerol and ethanol", "result": "used successfully"}, {"measurement": "effect relative to peppermint oil", "setting": "[2]; summary statement, related mint extracts", "result": "substantially more"}]}]}
